From patent US9790211B2, “5-amino-quinoline-8-carboxamide derivatives as 5-HT4 receptor agonists” (SUVEN LIFE SCIENCES LIMITED, priority 2013, dated 2017)
Like-named read-outs stand apart in the source and are kept apart here.

Columns and labels:
[1] = Rodent brain penetration study; assay type: in vivo, Male Wistar rats; details: 3 mg/kg oral (gavage)
Description: Male Wistar rats (225±25 grams) were used as experimental animals. Three animals were housed in each cage. Animals were given water and food ad libitum throughout the experiment and maintained on a 12 hours light/dark cycle. Brain penetration was determined in discrete manner in rats. One day prior to dosing day, male wistar rats (225-250 grams) were acclimatized. After acclimatization the rats were grouped according to their weight. In each group, 3 animals were kept in individual cage and allowed free access to food and water. At each time point (0.50, 1, and 2 hours) n=3 animals were used. The compounds of formula (I) were suitably preformulated and administered orally at (free base equivalent) 3 mg/kg. Blood samples were removed via, cardiac puncture by using isoflurane anesthesia. The animals were sacrificed to collect brain tissue. Plasma was separated and brain samples were homogenized and stored frozen at −20° C. until analysis. The concentrations of the compounds of formula (I) in plasma and brain were determined using LC-MS/MS method. The compounds of formula (I) were quantified in plasma and brain homogenate by qualified LC-MS/MS method using suitable extraction technique. The compounds of formula (I) were quantified in the calibration range of 1-500 ng/mL in plasma and brain homogenate. Study samples were analyzed using calibration samples in the batch and quality control samples spread across the batch. Extent of brain-plasma ratio was calculated (Cb/Cp).

[2] = biological target: T1, recombinant human 5-HT4 receptor (Homo sapiens, UniProt Q13639); assay: Determination of EC50 values for 5-HT4 receptor (CHO cells, pCRE-Luc reporter); assay type: cell-based; details: for EC50: 4 hours incubation; for Emax: CHO
T1 construct: expressed in transfected cells
How it was run: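 CHO cells stably expressing human 5-HT4 receptor with a CRE-luciferase reporter, serum-starved overnight, then exposed to increasing compound concentrations in OptiMEM for 4 h at 37 °C. Cells lysed and luciferase luminescence plotted against concentration.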

[3] = Rodent pharmacokinetic study; assay type: in vivo, Male wistar rats; details: plasma, Wistar/Male rat; for bioavailability: 3 mg/kg oral vs 1 mg/kg intravenous
Description: Male wistar rats (225±25 grams) were used as experimental animals. Three to five animals were housed in each cage. Two days prior to dosing day, male wistar rats (225-250 grams) were anesthetized with isoflurane for surgical placement of jugular vein catheter. Animals were fasted over night before oral dosing (p.o) and food pellets were allowed 2 hours post dosing, whereas during intravenous dosing food and water were provided as ad libitum. Three rats were dosed with compounds of formula (I) (3 mg/kg) orally and intravenously (1 mg/kg).
At each time point blood was collected through jugular vein and immediately replenish with an equivalent volume of normal saline from freely moving rats. Collected blood was transferred into a labeled eppendr off containing 10 μL of heparin as anticoagulant. Typically blood samples were collected as following time points: Pre dose, 0.08 (only i.v.), 0.25, 0.5, 1, 2, 4, 6, 8, and 24 hours post dose (n=3). Blood was centrifuged at 4000 rpm for 10 minutes. Plasma was prepared and stored frozen at −20° C. until analysis. The concentrations of the compounds of formula (I) were quantified in plasma by qualified LC-MS/MS method using suitable extraction technique. The compounds of formula (I) were quantified in the calibration range around 2-2000 ng/mL in plasma. Study samples were analyzed using calibration samples in the batch and quality control samples spread across the batch.
Pharmacokinetic parameters Cmax, Tmax, AUC1, T1/2 and Bioavailability were calculated by non-compartmental model using standard non-coinpartmental model by using WinNonLin 5.0.1 or Phoenix WinNonlin 6.2 version Software package.

Male Wistar rats = assay: Object recognition task model; assay type: in vivo; details: dose mg/kg: Ex 1 0.1, Ex 2 0.03, Ex 4 0.03, Ex 13 1, Ex 23 0.01, Ex 37 10, Ex 43 0.3; for Exploration time mean ± S.E.M, Familiar object / Exploration time mean ± S.E.M, Novel object: choice trial T2, p.o.; for Inference: p.o.
Description: The cognition enhancing properties of compounds of this invention were estimated by using this model.
Male Wistar rats (230-280 grams) were used as experimental animals. Four animals were housed in each cage. Animals were kept on 20% food deprivation before one day and given water ad libitum throughout the experiment and maintained on a 12 hours light/dark cycle. Also the rats were habituated to individual arenas for 1 hour in the absence of any objects.
One group of 12 rats received vehicle (1 mL/Kg) orally and another set of animals received compound of the formula (I) either orally or i.p., before one hour of the familiar (T1) and choice trial (T2).
The experiment was carried out in a 50×50×50 cm open field made up of acrylic. In the familiarization phase, (T1), the rats were placed individually in the open field for 3 minutes, in which two identical objects (plastic bottles, 12.5 cm height×5.5 cm diameter) covered in yellow masking tape alone (a1 and a2) were positioned in two adjacent corners, 10 cms from the walls. After 24 hours of the (T1) trial for long-term memory test, the same rats were placed in the same arena as they were placed in T1 trial. Choice phase (T2) rats were allowed to explore the open field for 3 minutes in presence of one familiar object (a3) and one novel object (b) (Amber color glass bottle, 12 cm high and 5 cm in diameter). Familiar objects presented similar textures, colors and sizes. During the T1 and T2 trial, explorations of each object (defined as sniffing, licking, chewing or having moving vibrissae whilst directing the nose towards the object at a distance of less than 1 cm) were recorded separately by stopwatch. Sitting on an object was not regarded as exploratory activity, however, it was rarely observed.
T1 is the total time spent exploring the familiar objects (a1+a2).
T2 is the total time spent exploring the familiar object and novel object (a3+b).
The object recognition test was performed as described by Behaviour Brain Research, (1988), 31, 47-59.

[4] = CHO cells, human 5-HT4 receptor, luciferase reporter

T1 sequence (Q13639 whole entry): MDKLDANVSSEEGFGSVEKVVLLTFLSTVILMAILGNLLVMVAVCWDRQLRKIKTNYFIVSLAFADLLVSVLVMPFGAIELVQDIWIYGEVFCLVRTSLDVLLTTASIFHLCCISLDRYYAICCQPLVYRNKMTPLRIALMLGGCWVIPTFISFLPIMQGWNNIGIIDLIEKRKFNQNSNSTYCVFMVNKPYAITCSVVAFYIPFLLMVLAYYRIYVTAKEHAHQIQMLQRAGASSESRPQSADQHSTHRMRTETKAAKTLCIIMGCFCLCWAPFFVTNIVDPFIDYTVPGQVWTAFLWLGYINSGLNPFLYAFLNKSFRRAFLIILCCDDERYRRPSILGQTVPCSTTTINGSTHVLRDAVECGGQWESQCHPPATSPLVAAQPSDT

Row | Structure (SMILES) | Single dose Brain Penetration (Cb/Cp) ([1]; Wistar/Male rat) | EC50 [2, 4] [nM] | Emax ([2]; CHO cells, human 5-HT4 receptor, luciferase reporter, read-out: Emax) [%] | Cmax ([3]; 1 mg/kg intravenous (bolus)) [ng/mL] | Tmax ([3]; 1 mg/kg intravenous (bolus)) [h] | half-life ([3]; 1 mg/kg intravenous (bolus)) [h] | AUC(0-t) ([3]; 3 mg/kg oral (gavage)) [ng·h/mL] | Cmax ([3]; 3 mg/kg oral (gavage)) [ng/mL] | Tmax ([3]; 3 mg/kg oral (gavage)) [h] | half-life ([3]; 3 mg/kg oral (gavage)) [h] | bioavailability [3] [%] | Exploration time mean ± S.E.M, Familiar object (Male Wistar rats) [s] | Exploration time mean ± S.E.M, Novel object (Male Wistar rats) [s] | Inference (Male Wistar rats) | Kp ([1]; male, Wistar, rat, brain, po, 3 mg/kg, read-out: Single dose Brain Penetration (Cb/Cp)) | Emax [2] [%] | AUC(0-t) ([3]; 1 mg/kg intravenous (bolus)) [ng·h/mL]
1 | Nc1c(Cl)cc(C(=O)NCC2CCN(CC3CCOCC3)CC2)c2ncccc12.O=C(O)/C=C/C(=O)O [Example 1, 5-Amino-6-chloro-N-{[1-(tetrahydro-2H-pyran-4-ylmethyl)-4-piperidinyl]methyl}quinoline-8-carboxamide hemifumarate] | 0.48 ± 0.03 | 0.04 | 76 | 149 ± 6 | 0.08 | 1.9 ± 0.7 | 240 ± 35 | 121 ± 25 | 0.42 ± 0.14 | 4 ± 1.1 | 51 ± 5 | 5.94 ± 0.71 | 16.09 ± 1.75 | Active | – | – | –
2 | Nc1c(Cl)cc(C(=O)NCC2CCN(CC3CCOCC3)CC2)c2ncccc12.O=C(O)C(O)C(O)C(=O)O [Example 13, 5-Amino-6-chloro-N-{[1-(tetrahydro-2H-pyran-4-ylmethyl)-4-piperidinyl]methyl} quinoline-8-carboxamide L(+)-tartarate] | – | 0.09 | – | 168 ± 12 | 0.08 | 1.5 ± 0.3 | 235 ± 25 | 76 ± 3 | 0.5 | 1.7 ± 0.3 | 37 ± 4 | 8.64 ± 1.33 | 15.11 ± 1.81 | Active | 0.41 ± 0.04 | 70 | 211 ± 20
